Experiments:
[1] = tested on: Human breast cancer cells (MCF7); experiment: Antiproliferative activity on MCF7 cells (methylene blue method); type: cell-based; conditions: Homo sapiens, MCF7, 72 h, MCF7 cells, 72 hours treatment, 660 nm absorbance after methylene blue staining; read-out: Antiproliferative activity IC50
[2] = tested on: Human lung cancer H460; experiment: Antitumor effect on nude mice transplanted with human lung cancer H460; type: in vivo; conditions: Table 9, tail vein, 5 days continuous, day 8, starting day = 1.0, control group 4.6 ± 3.1
Experimental: Antitumor Effect on Nude Mice Transplanted with Human Lung Cancer
Human lung cancer H460 tumor fragment, which had been passaged subcutaneously in nude mice, was made into about 3 mm fragment and transplanted subcutaneously to the back of nude mice using a trocar. When the tumor volume grew to about 50 mm^3 or above, the compound of the present invention was administered to the tail vein once a day for 5 or 7 days every day. The compound of the present invention was dissolved in DMSO, mixed with TWEEN 80, and then diluted with a 5% glucose injection solution and used. The vehicle of the compound was administered to the control group of OH-a01. The control groups in other experiments were not treated. The tumor volume was measured on the first administration day and on the evaluation day (7 or 8 days after the start of the administration), and the relative tumor volume of the evaluation day was obtained from the tumor volume on the first administration day. Further, the tumor volume was calculated by measuring the major axis (Lmm) and minor axis (Wmm) of the tumor and by the formula (L×W^2)/2.
Relative tumor volume represents the average relative tumor volume on day 7 after the start of the administration, assuming the tumor volume of the starting day is 1.0.
Relative tumor volume represents the average relative tumor volume on day 8 after the start of the administration, assuming the tumor volume of the starting day is 1.0.

[3] = tested on: HSP90 client protein ERα in MCF7 cells; experiment: Measurement test for amount of HSP90 client protein ERα (Western blotting); type: cell-based; conditions: MCF7 cells treated 16 hours at 3-5 concentrations
Experimental: (§1) MCF7 cells (American Type Culture Collection, Rockville, Md.) were treated with the compounds of the present invention at various concentrations for 16 hours to confirm that the HSP90 inhibitors of the present invention induce a depression of intracellular concentration of the client protein or target polypeptide that bind to HSP90. The amount of the HSP90 client protein Her2 and ERα was evaluated by the Western blotting method.
(§2) One million cells were seeded in a 6 cm dish, and 24 hours later the compounds of the present invention (Example 1-2, Example 2-1, Example 2-13, Example 2-2, Example 3-4, Example 2-5, Example 3-16, Example 3-6, Example 2-7, Example 3-27, Example 2-10 and Example 3-18) were added. Cells treated with the compounds were washed, mixed with 150 μl of lysis buffer (RIPA, 150 mM NaCl, 1% NP40, 0.1% deoxycholate (sodium salt), 0.1% SDS, 1 mM EDTA, 10 mM Tris-HCl (pH 8.0)) and incubated at 4° C. for 30 minutes. The cell lysates were centrifuged (15,000 rpm, 20 minutes) and protein (20 μg) of the supernatant was subjected to SDS polyacrylamide gel electrophoresis (SDS-PAGE). After finishing the electrophoresis, proteins in the gel were transferred to a PVDF membrane. The membrane after the transfer was treated with a primary antibody against the HSP90 client protein (anti Her2 or anti ERa antibody, both from Santa Cruz Biotechnology, Santa Cruz, Calif.), then treated with secondary antibodies (anti-rabbit Ig, horse radish peroxidase conjugated F(ab′)2 fragment (derived from donkey): Amersham Biosciences, UK Limited, Buckinghamhshire, UK.) and then the amount of the client protein was detected as the intensity of chemiluminescence signal with a chemiluminescence reagent (ECL: Amersham Biosciences UK Limited, Buckinghamshire, UK).

[4] = tested on: HSP90 client protein Her2 in MCF7 cells; experiment: Measurement test for amount of HSP90 client protein Her2 (Western blotting); type: cell-based; conditions: MCF7 cells treated 16 hours at 3-5 concentrations
Experimental: as §1, §2

[5] = target: rHSP90; experiment: HSP90 binding assay (BIACORE SPR; inhibition of binding between rHSP90 and fixed herbimycin A); conditions: concentration inhibiting binding between rHSP90 (50 μg/mL) and fixed herbimycin A by 50%, BIACORE-X SPR; read-out: HSP90 inhibitory activity IC50

## COc1ccc(-n2c(-c3cc(C(C)C)c(O)cc3O)n[nH]c2=O)cc1 [OH-a08, 5-(2,4-dihydroxy-5-isopropyl-phenyl)-4-(4-methoxy-phenyl)-2,4-dihydro-[1,2,4]triazol-3-one]
[1]
  IC50: 0.011 µM
[2]; 100 mg/kg/day
  Relative tumor volume (Average ± SD): 1.9 ± 1.0
[2]; 200 mg/kg/day
  Relative tumor volume (Average ± SD): 1.1 ± 0.3
other
  melting point: 272 °C (dec.)
[3]
  amount of HSP90 client protein ERα: depression
[4]
  amount of HSP90 client protein Her2: depression
[5]
  IC50: 0.12 µM
